Patent publication US12187716B2, “TYK2 kinase inhibitors” (SAREUM LIMITED, priority 2018, dated 2025)
Read-outs that look alike come from different tables or passages of the source.

What was measured:
CYP2C8 = target: T1, CYP2C8 (Homo sapiens, UniProt P10632); assay: Cytochrome P450 inhibition assay, CYP2C8; type: in vitro ADME; conditions: pooled human liver microsomes, probe Amodiaquine
T1 construct: from tissue; host or cells: pooled human liver microsomes
T1 sequence (P10632 1-490): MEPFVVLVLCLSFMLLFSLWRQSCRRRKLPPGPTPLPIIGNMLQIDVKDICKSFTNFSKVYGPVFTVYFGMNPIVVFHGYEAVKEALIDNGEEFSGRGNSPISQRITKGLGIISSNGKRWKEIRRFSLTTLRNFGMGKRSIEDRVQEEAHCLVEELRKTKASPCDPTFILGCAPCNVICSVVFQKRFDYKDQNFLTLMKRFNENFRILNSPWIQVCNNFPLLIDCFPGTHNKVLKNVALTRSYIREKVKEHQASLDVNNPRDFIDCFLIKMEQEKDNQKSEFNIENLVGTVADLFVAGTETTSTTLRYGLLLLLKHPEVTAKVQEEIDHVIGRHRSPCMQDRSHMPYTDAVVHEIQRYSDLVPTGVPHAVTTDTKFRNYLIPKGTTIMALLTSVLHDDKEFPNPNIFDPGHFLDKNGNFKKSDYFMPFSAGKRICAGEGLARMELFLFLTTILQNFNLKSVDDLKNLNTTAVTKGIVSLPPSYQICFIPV
Protocol: (§1) The susceptibility of Compounds (2) and (3) to potential drug-drug interactions was tested by assaying their abilities to inhibit various cytochrome P450 isoforms. Prior art Compound B (see Example 3 above) was also tested as a comparative example. Test compounds, prepared and serially diluted in DMSO, were incubated at six concentrations (1% DMSO final) with pooled human liver microsomes in the presence of probe substrate for each isoform, and their effects on the metabolism of probe substrates determined. Incubations (in 96-well plates) were carried out at 37° C. in 0.1 M Tris buffer, pH 7.4, with reactions initiated by the addition of cofactor, NADPH (1 mM final concentration). At the specified times, reactions were terminated with acetonitrile containing an analytical internal standard, samples were centrifuged and the supernatant fractions were analysed for probe substrate metabolites by mass spectrometry (LC-MS/MS). The instrument responses were normalised to internal standard and compared to the appropriate solvent controls to determine the amount of metabolite formed from the probe substrates relative to these “uninhibited” controls. […] [table]

CYP2C19 = target: T2, CYP2C19 (Homo sapiens, UniProt P33261); assay: Cytochrome P450 inhibition assay, CYP2C19; type: in vitro ADME; conditions: pooled human liver microsomes, probe S-(+)-Mephenytoin
T2 construct: from tissue; host or cells: pooled human liver microsomes
T2 sequence (P33261 whole entry): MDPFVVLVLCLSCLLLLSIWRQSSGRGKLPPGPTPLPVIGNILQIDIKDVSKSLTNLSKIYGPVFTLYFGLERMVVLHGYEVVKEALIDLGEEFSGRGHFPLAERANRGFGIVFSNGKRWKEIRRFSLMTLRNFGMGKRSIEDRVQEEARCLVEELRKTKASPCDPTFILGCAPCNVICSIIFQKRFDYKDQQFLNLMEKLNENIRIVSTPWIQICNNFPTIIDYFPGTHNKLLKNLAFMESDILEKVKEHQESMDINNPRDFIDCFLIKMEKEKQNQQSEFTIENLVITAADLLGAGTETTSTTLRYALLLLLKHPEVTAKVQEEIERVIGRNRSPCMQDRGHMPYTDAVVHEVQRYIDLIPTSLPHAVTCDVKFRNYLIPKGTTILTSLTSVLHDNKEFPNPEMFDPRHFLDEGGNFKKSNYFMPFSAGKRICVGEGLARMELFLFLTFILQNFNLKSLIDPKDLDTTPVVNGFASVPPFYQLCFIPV
Protocol: as §1

CYP2C9 = target: T3, CYP2C9 (Homo sapiens, UniProt P11712); assay: Cytochrome P450 inhibition assay, CYP2C9; type: in vitro ADME; conditions: pooled human liver microsomes, probe Diclofenac
T3 construct: from tissue; host or cells: pooled human liver microsomes
T3 sequence (P11712 whole entry): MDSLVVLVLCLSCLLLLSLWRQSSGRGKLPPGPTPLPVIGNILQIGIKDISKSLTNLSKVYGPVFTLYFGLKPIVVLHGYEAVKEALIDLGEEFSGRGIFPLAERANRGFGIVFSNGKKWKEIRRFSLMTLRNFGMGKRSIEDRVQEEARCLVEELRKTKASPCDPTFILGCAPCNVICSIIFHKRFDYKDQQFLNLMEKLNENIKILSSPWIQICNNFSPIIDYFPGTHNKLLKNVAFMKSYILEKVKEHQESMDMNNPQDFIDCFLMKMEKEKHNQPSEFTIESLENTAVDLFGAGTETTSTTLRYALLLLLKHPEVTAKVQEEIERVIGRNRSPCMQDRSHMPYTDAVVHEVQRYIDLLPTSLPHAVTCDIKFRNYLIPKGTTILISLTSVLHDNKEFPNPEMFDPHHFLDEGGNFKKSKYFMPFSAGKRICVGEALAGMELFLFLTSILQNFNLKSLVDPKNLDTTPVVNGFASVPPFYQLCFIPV
Protocol: as §1

hERG potassium channel = target: T4, hERG potassium channel (Homo sapiens, UniProt Q12809); assay: hERG channel inhibition assay (hERG-HEK cells, Sophion Qube); type: cell-based; conditions: for IC50: hERG-HEK cells, tail current, room temperature; for inhibition at 30 uM: human, hERG-HEK stably transfected cell line, Max Conc. 30 uM
T4 construct: expressed in transfected cells; host or cells: hERG-HEK stably transfected cell line
T4 sequence (Q12809 whole entry): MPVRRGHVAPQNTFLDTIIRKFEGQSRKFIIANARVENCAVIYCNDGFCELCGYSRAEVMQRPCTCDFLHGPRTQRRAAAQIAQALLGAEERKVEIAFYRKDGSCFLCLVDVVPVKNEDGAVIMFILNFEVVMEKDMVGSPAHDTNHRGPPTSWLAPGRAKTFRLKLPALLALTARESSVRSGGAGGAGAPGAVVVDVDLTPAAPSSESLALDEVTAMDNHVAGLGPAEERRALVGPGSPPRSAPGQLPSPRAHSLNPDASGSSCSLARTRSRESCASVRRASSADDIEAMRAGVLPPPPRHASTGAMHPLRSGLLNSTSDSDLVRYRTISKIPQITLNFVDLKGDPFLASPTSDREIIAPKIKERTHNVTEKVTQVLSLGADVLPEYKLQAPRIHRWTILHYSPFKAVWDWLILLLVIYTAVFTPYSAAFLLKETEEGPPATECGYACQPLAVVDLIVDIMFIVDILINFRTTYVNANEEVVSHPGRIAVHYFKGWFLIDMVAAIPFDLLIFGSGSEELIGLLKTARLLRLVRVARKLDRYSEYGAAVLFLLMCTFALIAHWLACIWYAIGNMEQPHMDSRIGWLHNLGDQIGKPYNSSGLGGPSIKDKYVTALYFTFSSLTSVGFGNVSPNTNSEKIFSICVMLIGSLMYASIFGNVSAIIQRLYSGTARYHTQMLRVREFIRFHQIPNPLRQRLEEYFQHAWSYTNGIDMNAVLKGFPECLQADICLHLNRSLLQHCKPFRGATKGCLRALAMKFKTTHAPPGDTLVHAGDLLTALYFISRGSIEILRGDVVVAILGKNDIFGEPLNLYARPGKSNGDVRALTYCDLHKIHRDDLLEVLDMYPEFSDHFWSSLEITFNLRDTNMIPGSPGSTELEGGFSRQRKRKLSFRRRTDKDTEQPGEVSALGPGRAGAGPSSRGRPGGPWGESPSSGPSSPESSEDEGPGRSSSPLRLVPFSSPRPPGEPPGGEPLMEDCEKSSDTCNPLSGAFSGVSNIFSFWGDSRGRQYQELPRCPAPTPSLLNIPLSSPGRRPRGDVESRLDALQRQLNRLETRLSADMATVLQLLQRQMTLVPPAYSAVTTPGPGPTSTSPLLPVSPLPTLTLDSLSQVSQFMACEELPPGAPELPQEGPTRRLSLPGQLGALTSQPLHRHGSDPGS
Protocol: The potential for compounds to inhibit the hERG potassium channel was determined using a hERG-HEK stably transfected cell line on the Sophion Qube automated electrophysiology platform. The assay was performed at room temperature and recordings of the hERG tail current from individual cells was made using single-hole QChips.
The potency (IC50) of test compounds to inhibit the hERG channel was determined from a concentration-response curve generated from 8 test compound concentrations with up to 4 replicates per concentration.
The compound concentration was added to the test well twice to ensure complete exchange of the external buffer with the test compound. In total, compound was applied to the well for >7 minutes.

pSTAT3 in HT29 cells = assay: pSTAT3 inhibition in response to IL-22 stimulation in serum starved HT29 cells; type: cell-based; conditions: for inhibition at 10 µM: HT-29, HT29 cells, 10 ng/ml human IL-22, 10 μM compound; for IC50: Homo sapiens, HT-29, HT29 cells, 10 ng/ml human IL-22
Protocol: HT29 cells were serum starved overnight before the four test compounds were diluted to generate a 9-point semi-log dose dilution with a top concentration of 10 μM, plus vehicle control. HT29 cells were incubated with the test compounds for 20 min at 37° C. HT29 cells were incubated for a further 15 min with 10 ng/ml human IL-22 before cells were fixed with 4% PFA for 10 min, and 90% methanol for 30 min before being labelled with a phospho-STAT3Y705 antibody (CST #9145). Cells were rinsed three times using 0.5% BSA/PBS solution before being incubated with Alexa-488 anti-rabbit secondary antibodies.
Mean fluorescence intensity of phospho-STAT3 in single cells was analysed by flow cytometry using an Intellicyt iQue instrument and FlowJo software. The IC50 was determined using a four-parameter analysis following removal of background signal and normalisation to the DMSO control.

[1] = test system: IL-17F production in Th17 cells; assay: IL-17F production inhibition in Th17 cells derived from human peripheral blood CD4CD45RO+ cells; type: cell-based
Protocol: Fresh human Peripheral blood CD4CD45RO+ cells were purchased commercially (Generon, UK); 3 separate vials from 3 different volunteers for experimental replicates. Cells were grown in T-cell medium (Thermo Fisher) containing 10 ng/ml recombinant human IL-1B (R&D Systems), IL-23 (R&D Systems), TGF-B1 (R&D Systems) and 50 ng/ml IL-6 (R&D Systems) together with anti-CD3/CD28 magnetic Dynabeads (Thermo Fisher). These were grown for 11 days to induce expansion of Th17 cells. Prior to plating for assays cells were grown overnight in T-cell medium supplemented with human serum (1%) overnight. Media was removed and replaced with unsupplemented RPMI for 4 h prior to assay.
To measure IL-17F levels, 200,000 cells were plated into a 96 well plate and preincubated with compounds for 30 minutes followed by stimulation with recombinant IL-23 at 6.25 ng/ml and recombinant human IL-1B at 0.1 ng/ml for 48 h. Supernatants were removed and IL-17F levels measured using a commercially available ELISA kit (Thermo Fisher; BMS2037-2).
ELISAs were carried out according to manufacturers instructions and absorbance read using a microplate reader (Thermo Fisher; Varioskan). Data was normalised to the response in untreated samples using the formula: % of control=((Stimulated sample Conc.−unstimulated sample Conc.)×100)/(Control stimulated Conc.−control unstimulated Conc.)
Graphpad Prism 8.1.0 was used to calculate I050 values using a Nonlinear 4 parameter logistic regression model (4PL).

TYK2 = TYK2 (Homo sapiens, UniProt P29597); assay: TYK2 kinase inhibition assay (33P-ATP filter binding, Reaction Biology)
Chain of TYK2 (P29597 833-1187): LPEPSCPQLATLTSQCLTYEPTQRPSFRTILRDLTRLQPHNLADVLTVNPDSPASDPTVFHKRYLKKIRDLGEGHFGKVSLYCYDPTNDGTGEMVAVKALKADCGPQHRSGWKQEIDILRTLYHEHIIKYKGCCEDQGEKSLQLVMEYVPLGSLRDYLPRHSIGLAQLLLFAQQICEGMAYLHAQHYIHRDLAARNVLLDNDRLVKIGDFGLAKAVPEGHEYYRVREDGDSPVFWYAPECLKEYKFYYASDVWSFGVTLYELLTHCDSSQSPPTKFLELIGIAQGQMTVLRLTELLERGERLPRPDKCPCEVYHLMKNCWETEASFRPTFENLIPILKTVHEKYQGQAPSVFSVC

JAK1 = JAK1 (Homo sapiens, UniProt P23458); assay: JAK1 kinase inhibition assay (33P-ATP filter binding, Reaction Biology)
Chain of JAK1 (P23458 866-1154): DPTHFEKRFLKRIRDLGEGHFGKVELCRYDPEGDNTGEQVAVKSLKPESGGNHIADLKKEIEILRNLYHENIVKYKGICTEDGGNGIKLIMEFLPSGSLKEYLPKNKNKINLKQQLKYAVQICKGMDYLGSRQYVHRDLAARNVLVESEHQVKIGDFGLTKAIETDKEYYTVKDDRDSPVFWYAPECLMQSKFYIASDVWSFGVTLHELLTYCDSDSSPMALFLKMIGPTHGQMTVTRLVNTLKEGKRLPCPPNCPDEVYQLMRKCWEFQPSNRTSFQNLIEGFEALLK

JAK2 = JAK2 (Homo sapiens, UniProt O60674); assay: JAK2 kinase inhibition assay (33P-ATP filter binding, Reaction Biology); conditions: for selectivity for TYK2 compared to JAK2: biochemical assays; for Selectivity v TYK2: JAK2: ratio of JAK2 IC50 to TYK2 IC50
Chain of JAK2 (O60674 809-1132): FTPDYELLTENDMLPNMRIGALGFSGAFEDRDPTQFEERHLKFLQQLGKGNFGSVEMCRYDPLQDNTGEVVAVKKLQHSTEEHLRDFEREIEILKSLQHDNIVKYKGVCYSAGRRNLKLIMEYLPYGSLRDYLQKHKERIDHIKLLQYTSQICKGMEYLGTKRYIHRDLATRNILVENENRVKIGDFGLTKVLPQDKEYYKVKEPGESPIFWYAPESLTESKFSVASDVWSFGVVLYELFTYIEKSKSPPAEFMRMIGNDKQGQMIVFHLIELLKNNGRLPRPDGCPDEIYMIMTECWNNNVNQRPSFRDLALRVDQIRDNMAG

[2] = IL-23 6.25 ng/ml + IL-1B 0.1 ng/ml, 48 h, Donor 1, read-out: IL17-F Production Inhibition IC50, Donor 1
[3] = IL-23 6.25 ng/ml + IL-1B 0.1 ng/ml, 48 h, Donor 2, read-out: IL17-F Production Inhibition IC50, Donor 2
[4] = IL-23 6.25 ng/ml + IL-1B 0.1 ng/ml, 48 h, Donor 3, read-out: IL17-F Production Inhibition IC50, Donor 3
[5] = average of 3 donors, read-out: IL17-F Production Inhibition IC50, Average

Row | IC50 (CYP2C8) [nM] | IC50 (CYP2C19) [nM] | IC50 (CYP2C9) [nM] | IC50 (pSTAT3 in HT29 cells) [nM] | IC50 [1, 2] [nM] | IC50 [1, 3] [nM] | IC50 [1, 4] [nM] | IC50 [1, 5] [nM] | IC50 (TYK2) [nM] | Selectivity v TYK2: TYK2 (TYK2; ratio of IC50 to TYK2 IC50) | IC50 (JAK1) [nM] | Selectivity v TYK2: JAK1 (JAK1; ratio of JAK1 IC50 to TYK2 IC50) | IC50 (JAK2) [nM] | selectivity for TYK2 compared to JAK2 (JAK2) | Selectivity v TYK2: JAK2 (JAK2) | SMILES | IC50 (hERG potassium channel) [nM] | inhibition at 30 uM (hERG potassium channel) [%] | inhibition at 10 µM (pSTAT3 in HT29 cells) [%]
1 | > 30000 | 29000 | > 30000 | 231 | 57 | 548 | 105 | 237 | 4.7 | 1 | 51 | 10.9 | 153 | approximately 32 fold | 32.5 | NC(=O)c1nc(-c2c(Cl)cccc2Cl)oc1Nc1ccc(C(=O)N2CCS(=O)(=O)CC2)c(F)c1 [Compound (3)] | > 30000 | 31.5 | 95.9
2 | > 8200 | > 30000 | 4400 | < 100 | 243 | 217 | 148 | 203 | 5.1 | – | 26 | – | – | – | – | NC(=O)c1nc(-c2c(Cl)cccc2Cl)oc1Nc1ccc(C(=O)N2CCOCC2)cc1 [Comparative Compound B, 2-(2,6-dichloro-phenyl)-5-[4-(morpholine-4-carbonyl)-phenylamino]-oxazole-4-carboxylic acid amide, reference compound] | ~30000 | 50.5 | 97.9
3 | > 30000 | > 30000 | 26000 | – | 117 | 134 | 64 | 105 | 1.9 | – | 20 | – | 50 | approximately 25 fold | 26.3 | NC(=O)c1nc(-c2c(Cl)cccc2Cl)oc1Nc1ccc(C(=O)N2CCS(=O)(=O)CC2)cc1 [Compound (2)] | > 30000 | 38.6 | 95.9
